Results published in patent US20250280827A1, “An antifungal composition comprising natamycin and at least one insecticide” (priority 2021, published 2025).
Like-named read-outs stand apart in the source and are kept apart here.

Key:
Sclerotinia sclerotiorum = test: Antifungal effect against Sclerotinia sclerotiorum infection on wounded skin of broad bean pods (rot area, Colby synergy); format: in vivo; details: natamycin-insecticide 15-0 ppm
Botrytis cinerea = test: Antifungal effect against Botrytis cinerea infection on wounded peel of banana fruits (Colby synergy); format: in vivo; details: natamycin-insecticide 1:0 ppm
Fusarium graminerum = format: cell-based; details: 6 days after inoculation
Description: (§1) The Colby equation (Colby, 1967. Weeds 15:20-22) calculates the expected antifungal activity (E in %) of a combination comprising more than one active ingredients:
(§2) wherein X and Y are the observed antifungal activities (in %) of the individual active ingredients x and y, respectively. If the observed antifungal activity (O in %) of the combination exceeds the expected antifungal activity (E in %) of the combination and the synergy factor O/E is thus >1.0, the combined application of the active ingredients leads to a synergistic antifungal effect.
(§3) Agar medium was prepared by mixing in a 100 ml Duran bottle 3.9 g of potato dextrose agar (PDA) from Carl-Roth (Carl-Roth GmbH+Co. KG, Karlsruhe, Germany) with 100 ml deionized water and autoclaving the Duran bottle at 120° C. for 15 minutes. After autoclaving, the solution was cooled by putting it in a 48° C. oven for about two hours. Afterward the semi-liquid PDA solution was carefully mixed with natamycin and/or insecticide dosages as specified in Table 5 showing the interaction results on petri dishes. The medium in the Duran bottle was divided over 5 petri dishes (90×15 mm), 20 ml per petri dish by using 25 ml serological pipets (ROTILABO®; Carl-Roth). Each natamycin and/or insecticide treatment was performed in fivefold.
(§4) Fungal spore suspensions were prepared by drenching a fully grown petri dish with sterile water. The fungus was scraped off and filtered through a Miracloth (pore size: 22-25 μm) (Merck KGaA, Darmstadt, Germany; catalogue number: 475855). The number of spores were counted with a hemocytometer and fungal suspension was adjusted to 10^6 spores per ml. Afterward, 5 μl of prepared spore suspension was pipetted on the center of the agar plate. The plates were incubated at 25° C. Measurement of the fungal growth was done using callipers at different time points. Assessment of the infection area was 6 days after inoculation.
(§5) The insecticide levels and the period after which the assessments were made are presented as specified for the different insecticides are presented in Table 5 below. Synergistic calculation was done using the Colby equation. Experiment was performed in 5-fold.
The experiments were performed as described in Example 3. The product KARATE ZEON® of company Syngenta containing the active ingredient lambda-cyhalothrin belonging to IRAC Group 3 was tested. Assessment of the infection area was 6 days after inoculation. Experiment was performed in 5-fold.

Fusarium culmorum = test: Antifungal effect against Fusarium culmorum on PDA petri dishes (fungal growth area, Colby synergy); format: cell-based; details: natamycin-insecticide 0.5-0 ppm
Description: as §1, §2, §3, §4, §5
The experiments were performed as described in Example 3. Assessment of the infection area was 6 days after inoculation. Experiment was performed in 5-fold.
The experiments were performed as described in Example 3. The product KARATE ZEON® of company Syngenta containing the active ingredient lambda-cyhalothrin belonging to IRAC Group 3 was tested. Assessment of the infection area was 3 days after inoculation. Experiment was performed in 5-fold.

[1] = 23 h after inoculation, Table 4
[2] = 23 h after inoculation, Table 7
[3] = 23 hours after inoculation, Table 9
[4] = 30 h after inoculation, Table 3
[5] = 31 hours after inoculation, Table 8
[6] = 3 days after inoculation, Table 14A
[7] = 3 days after inoculation, Table 14B
[8] = 5 days after inoculation, Table 12A
[9] = 5 days after inoculation, Table 12B
[10] = 5 days after inoculation, Table 18A
[11] = 5 days after inoculation, Table 18B
[12] = natamycin-insecticide 0.5-0 ppm, Table 5
[13] = natamycin-insecticide 1-0 ppm, Table 10
[14] = 3 days after inoculation, Table 11
[15] = 6 days after inoculation, Table 6

Compound: C[C@@H]1C/C=C/C=C/C=C/C=C/[C@H](O[C@@H]2O[C@H](C)[C@@H](O)[C@H](N)[C@@H]2O)C[C@@H]2O[C@](O)(C[C@@H](O)C[C@H]3O[C@@H]3/C=C/C(=O)O1)C[C@H](O)[C@H]2C(=O)O [natamycin]
- Avg infected area (Sclerotinia sclerotiorum; [1]): 104.2 mm2
- Observed antifungal activity (Sclerotinia sclerotiorum; [1]): 33.5%
- Avg infected area (Sclerotinia sclerotiorum; [2]): 99.9 mm2
- Observed antifungal activity (Sclerotinia sclerotiorum; [2]): 26.9%
- Avg infected area (Sclerotinia sclerotiorum; [3]): 66.2 mm2
- Observed antifungal activity (Sclerotinia sclerotiorum; [3]): 41.8%
- Avg infected area (Sclerotinia sclerotiorum; [4]): 278.54 mm^2
- Observed antifungal activity (Sclerotinia sclerotiorum; [4]): 11.4%
- Avg infected area (Sclerotinia sclerotiorum; [5]): 172.7 mm2
- Observed antifungal activity (Sclerotinia sclerotiorum; [5]): 33.1%
- Avg infected area (Botrytis cinerea; [6]): 9.2 mm2
- Observed antifungal activity (Botrytis cinerea; [6]): 18.8%
- Avg infected area (Botrytis cinerea; [7]): 5.5 mm2
- Observed antifungal activity (Botrytis cinerea; [7]): 43.9%
- Avg infected area (Botrytis cinerea; [8]): 52.6 mm2
- Observed antifungal activity (Botrytis cinerea; [8]): 18.0%
- Avg infected area (Botrytis cinerea; [9]): 84.7 mm2
- Observed antifungal activity (Botrytis cinerea; [9]): 14.3%
- Avg infected area (Botrytis cinerea; [10]): 30.7 mm2
- Observed antifungal activity (Botrytis cinerea; [10]): 37.6%
- Avg infected area (Botrytis cinerea; [11]): 25.9 mm2
- Observed antifungal activity (Botrytis cinerea; [11]): 11.6%
- Avg infected area (Fusarium graminerum; [12]): 1054.4 mm2
- Observed antifungal activity (Fusarium graminerum; [12]): 7.2%
- Avg infected area (Fusarium graminerum; [13]): 1107.7 mm2
- Observed antifungal activity (Fusarium graminerum; [13]): 69.4%
- Avg infected area (Fusarium culmorum; [14]): 297.7 mm2
- Observed antifungal activity (Fusarium culmorum; [14]): 17.9%
- Avg infected area (Fusarium culmorum; [15]): 810.2 mm2
- Observed antifungal activity (Fusarium culmorum; [15]): 18.8%
